# Reference: US10301267B2, “Compounds” (AstraZeneca AB, priority 2006, dated 2019)
# Biological target: FGFR1 active kinase (Homo sapiens, UniProt P11362)
# Assay: FGFR Kinase assay - Caliper Echo Dosing
# Type: biochemical
# Conditions: FGFR1 7.2 nM, 408 uM ATP, acoustic dosing; geometric mean of n
# Method: FGFR Kinase Assay—Caliper Echo Dosing
# To determine inhibition of FGFR activity, kinase assays were conducted using Caliper technology.
# Kinase activity assays were performed in Greiner 384-well low volume plates, with a total reaction volume of 12 ul per well. Final concentration of FGFR1 active kinase in each reaction well was 7.2 nM. The substrate for each assay was a custom peptide with fluorescent tag (13 amino acids in length, […] with the fluorescene tag on the first K).
# Compounds were dispensed directly in to assay plates using a Labcyte Echo 550 acoustic droplet ejection unit. Each well received 120 nl of DMSO containing compound such that the final concentration of compound in the assay prior to the addition of the stop solution ranged between 30 uM and 30 pM. In addition to compounds each plate carried maximum and minimum control wells, the max wells contained 120 nl of DMSO and the min wells contained 120 nl of 10 mM staurosporine (LC Laboratories, MA 01801, USA Catalogue No. S-9300). The Enzyme (at 7.2 nM [final]) and Substrate (at 3.6 uM [final]) were added separately to the compound plates, in reaction buffer [comprising: 50 mM MOPS (Sigma, Catalogue No. M1254)—pH 6.5, 0.004% Triton (Sigma, Catalogue No. X-100), 2.4 mM DTT, 12 mM MgCl2, 408 uM ATP] resulting in a final DMSO concentration in the reaction mix of 1%.
# Assay plates were incubated at room temperature for 1.5 h, before the reaction was stopped with the addition of buffer [comprising: 100 mM HEPES—pH7.5, 0.033% Brij-35 (Sigma Catalogue No. B4184), 0.22% Caliper Coating Reagent #3 (Caliper Life Sciences Catalogue No. 760050), 88 mM EDTA, 5% DMSO]. Stopped assay plates were then read using the Caliper LabChip® LC3000 (which uses microfludics to measure a shift in mobility between fluorescent labelled peptide and the FGFR1 kinase—phosphorylated form of this peptide).
# In the assay, compounds were tested at a range of concentrations. […] Percentage inhibition at 1 uM, as expressed herein, is a calculated value based on the curve fit that was generated experimentally. From the fitted curve plot, the effect of compound at a concentration of 1 uM was calculated as a percentage inhibition. The IC50 is the concentration of compound, which inhibits FGFR1 kinase activity by 50% in the context of this assay. This value is calculated using a standard curve fitting software package Origin™.
# FGFR1 active kinase, sequence (P11362 22-822): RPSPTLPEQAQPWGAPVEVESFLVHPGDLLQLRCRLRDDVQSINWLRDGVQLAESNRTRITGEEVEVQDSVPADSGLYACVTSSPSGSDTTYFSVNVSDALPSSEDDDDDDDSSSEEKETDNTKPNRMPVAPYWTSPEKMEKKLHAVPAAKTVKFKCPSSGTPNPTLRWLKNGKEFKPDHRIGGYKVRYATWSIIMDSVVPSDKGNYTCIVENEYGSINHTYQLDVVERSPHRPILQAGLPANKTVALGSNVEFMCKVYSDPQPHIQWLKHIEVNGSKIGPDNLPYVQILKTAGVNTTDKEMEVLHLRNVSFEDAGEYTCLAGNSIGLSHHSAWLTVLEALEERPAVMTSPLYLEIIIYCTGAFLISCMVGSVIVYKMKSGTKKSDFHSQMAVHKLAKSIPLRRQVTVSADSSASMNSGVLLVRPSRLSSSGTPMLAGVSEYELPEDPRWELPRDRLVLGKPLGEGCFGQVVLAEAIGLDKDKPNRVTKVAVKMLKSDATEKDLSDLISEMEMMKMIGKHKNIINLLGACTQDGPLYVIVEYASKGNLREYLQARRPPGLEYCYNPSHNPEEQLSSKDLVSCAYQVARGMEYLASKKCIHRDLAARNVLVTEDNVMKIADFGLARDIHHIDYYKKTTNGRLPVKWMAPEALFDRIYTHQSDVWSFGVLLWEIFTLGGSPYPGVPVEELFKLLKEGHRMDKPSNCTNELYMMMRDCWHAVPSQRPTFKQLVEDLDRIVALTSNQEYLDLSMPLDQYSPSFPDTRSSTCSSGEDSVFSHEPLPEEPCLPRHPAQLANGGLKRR
row,SMILES,IC50 [nM]
1,"COc1cc(COc2cc(NC(=O)c3cnc(N4C[C@@H](C)N(C)[C@@H](C)C4)cn3)[nH]n2)cc(OC)c1 [Example 130, N-[5-[(3,5-dimethoxyphenyl)methoxy]-2H-pyrazol-3-yl]-5-[(3R,5S)-3,4,5-trimethylpiperazin-1-yl]pyrazine-2-carboxamide]",0.59
2,"C=CCN1CCCN(c2ccc(C(=O)Nc3cc(CCc4cc(OC)cc(OC)c4)n[nH]3)cc2)CC1 [Example 164, N-[5-[2-(3,5-dimethoxyphenyl)ethyl]-2H-pyrazol-3-yl]-4-(4-prop-2-enyl-1,4-diazepan-1-yl)benzamide]",0.78
3,"COc1cc(CCc2cc(NC(=O)c3ccc(N4CCCN(C(C)C)CC4)s3)[nH]n2)cc(OC)c1 [Example 168, N-[5-[2-(3,5-dimethoxyphenyl)ethyl]-2H-pyrazol-3-yl]-5-(4-propan-2-yl-1,4-diazepan-1-yl)thiophene-2-carboxamide]",1.5
4,"C=CCN1CCCN(c2cnc(C(=O)Nc3cc(CCc4cc(OC)cc(OC)c4)n[nH]3)cn2)CC1 [Example 172, N-[5-[2-(3,5-dimethoxyphenyl)ethyl]-2H-pyrazol-3-yl]-5-(4-prop-2-enyl-1,4-diazepan-1-yl)pyrazine-2-carboxamide]",3.4
5,"COc1cc(COc2cc(NC(=O)c3cnc(N4CCN(C5CC5)CC4)nc3)[nH]n2)cc(OC)c1 [Example 133, 2-(4-cyclopropylpiperazin-1-yl)-N-[5-[(3,5-dimethoxyphenyl)methoxy]-2H-pyrazol-3-yl]pyrimidine-5-carboxamide]",3.9
6,"COc1cc(CCc2cc(NC(=O)c3ccc(N4CCNC(C)(C)C4)cc3)[nH]n2)cc(OC)c1 [Example 139, N-[5-[2-(3,5-dimethoxyphenyl)ethyl]-2H-pyrazol-3-yl]-4-(3,3-dimethylpiperazin-1-yl)benzamide]",0.47
7,"COc1cc(COc2cc(NC(=O)c3ccc(N4CCN(C)C(C)C4)s3)[nH]n2)cc(OC)c1 (stereo not shown) [Example 97, N-[5-[(3,5-dimethoxyphenyl)methoxy]-2H-pyrazol-3-yl]-5-(3,4-dimethylpiperazin-1-yl)thiophene-2-carboxamide]",0.46
8,"COc1cc(CCc2cc(NC(=O)c3ccc(N4CCCN(C)CC4)s3)[nH]n2)cc(OC)c1 [Example 142, N-[5-[2-(3,5-dimethoxyphenyl)ethyl]-2H-pyrazol-3-yl]-5-(4-methyl-1,4-diazepan-1-yl)thiophene-2-carboxamide]",2.1
9,"COc1cc(COc2cc(NC(=O)c3cnc(N4CCN(C5CC5)CC4)cn3)[nH]n2)cc(OC)c1 [Example 109, 5-(4-Cyclopropylpiperazin-1-yl)-N-[5-[(3,5-dimethoxyphenyl)methoxy]-2H-pyrazol-3-yl]pyrazine-2-carboxamide]",3
10,"COc1cc(CCc2cc(NC(=O)c3cnc(N4C[C@@H](C)N[C@@H](C)C4)cn3)[nH]n2)cc(OC)c1 [Example 112, N-[5-[2-(3,5-dimethoxyphenyl)ethyl]-2H-pyrazol-3-yl]-5-[(3R,5S)-3,5-dimethylpiperazin-1-yl]pyrazine-2-carboxamide]",1.7
11,"COc1cc(CCc2cc(NC(=O)c3ccc(N4C[C@@H](C)N(C)[C@@H](C)C4)cc3)[nH]n2)cc(OC)c1 [Example 155, N-[5-[2-(3,5-dimethoxyphenyl)ethyl]-2H-pyrazol-3-yl]-4-[(3R,5S)-3,4,5-trimethylpiperazin-1-yl]benzamide]",0.45
12,"COc1cc(COc2cc(NC(=O)c3cnc(N4CCN5CCCCC5C4)nc3)[nH]n2)cc(OC)c1 (stereo not shown) [Example 119, 2-(1,3,4,6,7,8,9,9a-Octahydropyrido[2,1-c]pyrazin-2-yl)-N-[5-[(3,5-dimethoxyphenyl)methoxy]-2H-pyrazol-3-yl]pyrimidine-5-carboxamide]",3.3
13,"COCCN1CCC(c2ccc(C(=O)Nc3cc(CCc4cc(OC)cc(OC)c4)n[nH]3)cc2)CC1 [Example 148, N-[5-[2-(3,5-dimethoxyphenyl)ethyl]-2H-pyrazol-3-yl]-4-[1-(2-methoxyethyl)piperidin-4-yl]benzamide]",0.87
14,"COc1cc(CCc2cc(NC(=O)c3ccc(I)cc3)[nH]n2)cc(OC)c1 [Example 82, N-[5-[2-(3,5-Dimethoxyphenyl)ethyl]-2H-pyrazol-3-yl]-4-iodo-benzamide]",21
15,"COc1cc(CCc2cc(NC(=O)c3ccc(N4CCN(C(C)CO)CC4)cc3)[nH]n2)cc(OC)c1 (stereo not shown) [Example 137, N-[5-[2-(3,5-dimethoxyphenyl)ethyl]-2H-pyrazol-3-yl]-4-[4-(1-hydroxypropan-2-yl)piperazin-1-yl]benzamide]",0.57
16,"COc1cc(CCc2cc(NC(=O)c3cnc(C4CCN(C)CC4)nc3)[nH]n2)cc(OC)c1 [Example 162, N-[5-[2-(3,5-dimethoxyphenyl)ethyl]-2H-pyrazol-3-yl]-2-(1-methylpiperidin-4-yl)pyrimidine-5-carboxamide]",36
17,"COc1cc(CCc2cc(NC(=O)c3ccc(N4CCCNCC4)cc3)[nH]n2)cc(OC)c1 [Example 145, 4-(1,4-diazepan-1-yl)-N-[5-[2-(3,5-dimethoxyphenyl)ethyl]-2H-pyrazol-3-yl]benzamide]",0.7
18,"CCN1CCN(c2ccc(C(=O)Nc3cc(OCc4cc(OC)cc(OC)c4)n[nH]3)s2)CC1 [Example 141, N-[5-[(3,5-dimethoxyphenyl)methoxy]-2H-pyrazol-3-yl]-5-(4-ethylpiperazin-1-yl)thiophene-2-carboxamide]",0.86
19,"CCN1CCCN(c2cnc(C(=O)Nc3cc(CCc4cc(OC)cc(OC)c4)n[nH]3)cn2)CC1 [Example 169, N-[5-[2-(3,5-dimethoxyphenyl)ethyl]-2H-pyrazol-3-yl]-5-(4-ethyl-1,4-diazepan-1-yl)pyrazine-2-carboxamide]",2.7
20,"COc1cc(COc2cc(NC(=O)c3cnc(N4CCN5CCCCC5C4)cn3)[nH]n2)cc(OC)c1 (stereo not shown) [Example 115, 5-(1,3,4,6,7,8,9,9a-Octahydropyrido[2,1-c]pyrazin-2-yl)-N-[5-[(3,5-dimethoxyphenyl)methoxy]-2H-pyrazol-3-yl]pyrazine-2-carboxamide]",2.3
21,"COc1cc(COc2cc(NC(=O)c3ccc(N4CCN(C5CC5)CC4)cc3)[nH]n2)cc(OC)c1 [Example 116, 4-(4-cyclopropylpiperazin-1-yl)-N-[5-[(3,5-dimethoxyphenyl)methoxy]-2H-pyrazol-3-yl]benzamide]",0.93
22,"COCC1CN(c2ncc(C(=O)Nc3cc(CCc4cc(OC)cc(OC)c4)n[nH]3)cn2)CCN1 (stereo not shown) [Example 160, N-[5-[2-(3,5-dimethoxyphenyl)ethyl]-2H-pyrazol-3-yl]-2-[3-(methoxymethyl)piperazin-1-yl]pyrimidine-5-carboxamide]",4.3
23,"COc1cc(CCc2cc(NC(=O)c3ccc(N4CCN(C(=O)OC(C)(C)C)CC4)s3)[nH]n2)cc(OC)c1 [Example 102, tert-Butyl 4-[5-[[5-[2-(3,5-dimethoxyphenyl)ethyl]-2H-pyrazol-3-yl]carbamoyl]thiophen-2-yl]piperazine-1-carboxylate]",28
24,"CNC(=O)c1cccc(CCc2cc(NC(=O)c3ccc(N4CCN(C)CC4)cc3)[nH]n2)c1 [Example 178, N-[5-[2-[3-(methylcarbamoyl)phenyl]ethyl]-2H-pyrazol-3-yl]-4-(4-methylpiperazin-1-yl)benzamide]",1.1
25,"COc1cc(CCc2cc(NC(=O)c3ccc(N4CCCN(C)CC4)cc3)[nH]n2)cc(OC)c1 [Example 156, N-[5-[2-(3,5-dimethoxyphenyl)ethyl]-2H-pyrazol-3-yl]-4-(4-methyl-1,4-diazepan-1-yl)benzamide]",0.81
